In ChEMBL document CHEMBL1125966, “Synthesis and pharmacological evaluation of combined thromboxane receptor antagonist/synthase inhibitors: pyridine-containing sulphonamido acids” (Bioorg Med Chem Lett, 1991):

How the values were obtained:
Thromboxane A2 receptor [1] = biological target: T1, Thromboxane A2 receptor (Homo sapiens, UniProt P21731); test: In vitro thromboxane A2 receptor antagonism through inhibition of U-46619 induced platelet aggregation in human whole blood; format: functional, tissue-based; settings: read-out: pA2 (converted)
T1 sequence (P21731 whole entry): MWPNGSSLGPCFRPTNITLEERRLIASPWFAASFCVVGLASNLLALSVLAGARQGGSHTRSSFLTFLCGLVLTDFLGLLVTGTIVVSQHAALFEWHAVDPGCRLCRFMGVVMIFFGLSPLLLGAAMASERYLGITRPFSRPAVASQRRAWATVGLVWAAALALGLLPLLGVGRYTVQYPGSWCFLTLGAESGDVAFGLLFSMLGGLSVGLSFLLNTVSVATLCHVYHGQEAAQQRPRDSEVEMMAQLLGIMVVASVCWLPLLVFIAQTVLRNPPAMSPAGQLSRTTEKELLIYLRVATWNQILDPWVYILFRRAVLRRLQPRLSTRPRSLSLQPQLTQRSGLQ

Thromboxane-A synthase = biological target: T2, Thromboxane-A synthase (Homo sapiens, UniProt P24557); test: In vitro inhibition of collagen-induced thromboxane A2 production in human whole blood; format: functional, tissue-based
T2 sequence (P24557 whole entry): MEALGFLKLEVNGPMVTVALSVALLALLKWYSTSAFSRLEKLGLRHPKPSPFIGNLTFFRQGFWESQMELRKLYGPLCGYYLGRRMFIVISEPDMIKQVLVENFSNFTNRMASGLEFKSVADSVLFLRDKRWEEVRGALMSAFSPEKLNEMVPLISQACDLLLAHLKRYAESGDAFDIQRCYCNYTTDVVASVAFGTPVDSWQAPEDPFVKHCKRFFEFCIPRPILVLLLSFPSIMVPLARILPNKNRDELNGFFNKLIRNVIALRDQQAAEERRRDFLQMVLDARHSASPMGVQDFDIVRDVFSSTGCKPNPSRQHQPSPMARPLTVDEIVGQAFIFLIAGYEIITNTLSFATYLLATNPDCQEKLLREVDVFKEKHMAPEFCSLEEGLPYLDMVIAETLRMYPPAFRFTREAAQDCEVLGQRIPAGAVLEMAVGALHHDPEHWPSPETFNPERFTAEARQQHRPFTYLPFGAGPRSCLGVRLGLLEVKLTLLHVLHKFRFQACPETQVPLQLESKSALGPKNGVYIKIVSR

Thromboxane A2 receptor [2] = biological target: T3, Thromboxane A2 receptor (Rattus norvegicus, UniProt P34978); test: In vitro thromboxane A2 receptor antagonism through inhibition of U-46619 induced contraction of rat isolated thoracic aortic strip; format: functional; settings: read-out: pA2 (converted)
T3 sequence (P34978 whole entry): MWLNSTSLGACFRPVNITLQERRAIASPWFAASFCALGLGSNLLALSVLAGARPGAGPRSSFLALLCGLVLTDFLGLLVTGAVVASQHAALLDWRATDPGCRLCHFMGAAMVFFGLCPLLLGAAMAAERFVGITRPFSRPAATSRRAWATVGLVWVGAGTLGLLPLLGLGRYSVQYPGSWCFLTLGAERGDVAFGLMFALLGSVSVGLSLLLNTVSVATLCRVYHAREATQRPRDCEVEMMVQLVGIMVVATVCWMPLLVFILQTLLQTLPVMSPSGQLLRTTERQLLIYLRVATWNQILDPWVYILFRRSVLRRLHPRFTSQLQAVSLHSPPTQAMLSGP

[3] = The half life period was determined; format: ADME
Canis familiaris [4] = test: Tested ex vivo for the percent inhibition of serum TXA2 production with collagen-induced platelet aggregation in conscious dog at dosage of 10 mg/kg for 12 to 24 h; format: functional; settings: Canis lupus familiaris
Canis familiaris [5] = test: Tested ex vivo for the percent inhibition of serum TXA2 production with collagen-induced platelet aggregation in anasthetised dog after administration at a dose of 10 ug/kg/min; format: functional; settings: Canis lupus familiaris

Row | Compound | Kb (Thromboxane A2 receptor [1]) [nM] | IC50 (Thromboxane-A synthase) [nM] | Kb (Thromboxane A2 receptor [2]) [nM] | half-life [3] [min] | inhibition in vivo at 10 mg/kg (Canis familiaris [4]) [%] | inhibition in vivo at 10 µg/kg/min (Canis familiaris [5]) [%]
1 | O=C(O)CCCCO/N=C(/c1cccnc1)c1cccc(CCNS(=O)(=O)c2ccc(I)cc2)c1 | 2000 | 200 | 200 | < 30 |  | 
2 | O=C(O)CO/N=C(/c1cccnc1)c1cccc(CCNS(=O)(=O)c2ccc(I)cc2)c1 | 200 | > 1000 | 1.58 |  |  | 
3 | O=C(O)CCC/C=C(/c1cccnc1)c1cccc(CCNS(=O)(=O)c2ccc(Cl)c(Cl)c2)c1 | 316 | 63.1 | 63.1 |  |  | 
4 | CC(C)(CNS(=O)(=O)c1ccc(I)cc1)c1cccc(/C(=N\OCCC(=O)O)c2cccnc2)c1 | 316 | 200 | 2 | < 30 |  | 
5 | O=C(O)CCO/N=C(/c1cccnc1)c1cccc(CCNS(=O)(=O)c2ccc(I)cc2)c1 | 100 | 501 | 0.631 | < 30 |  | 
6 | O=C(O)CCCO/N=C(/c1cccnc1)c1cccc(CCNS(=O)(=O)c2ccc(I)cc2)c1 | 1580 | 200 | 12.6 | < 30 |  | 
7 | O=C(O)CC/C=C(/c1cccnc1)c1cccc(CCNS(=O)(=O)c2ccccc2)c1 | 7940 | 79.4 | 31.6 |  |  | 
8 | O=C(O)CCC/C=C(/c1cccnc1)c1cccc(CCCNS(=O)(=O)c2ccccc2)c1 | 1000 | 50.1 | 126 |  |  | 
9 | O=C(O)CCCCO/N=C(/c1cccnc1)c1cccc(C(F)(F)F)c1 [RIDOGREL] |  |  |  | < 30 |  | 

Now from value to compound, other results behind:

Row | Kb (Thromboxane A2 receptor [1]) [nM] | IC50 (Thromboxane-A synthase) [nM] | Kb (Thromboxane A2 receptor [2]) [nM] | half-life [3] [min] | Compound | inhibition in vivo at 10 mg/kg (Canis familiaris [4]) [%] | inhibition in vivo at 10 µg/kg/min (Canis familiaris [5]) [%]
10 | 794 | 50.1 | 15.8 |  | O=C(O)CCC/C=C(/c1cccnc1)c1cccc(CCNS(=O)(=O)c2ccccc2)c1 |  | 
11 | 794 | 20 | 10 |  | O=C(O)CCCC/C=C(/c1cccnc1)c1cccc(CCNS(=O)(=O)c2ccc(I)cc2)c1 |  | 
12 | 200 | 31.6 | 0.631 |  | CC(C)(CNS(=O)(=O)c1ccc(I)cc1)c1cccc(/C(=C\CCCC(=O)O)c2cccnc2)c1 | > 90 | > 98
13 | 631 | 39.8 | 3.98 |  | O=C(O)CCC/C=C(/c1cccnc1)c1cccc(CCNS(=O)(=O)c2ccc([N+](=O)[O-])cc2)c1 |  | 
14 | 1000 | 50.1 | 200 |  | O=C(O)CCC/C=C(/c1cccnc1)c1cccc(CCNS(=O)(=O)c2ccccc2[N+](=O)[O-])c1 |  | 
15 | 631 | 31.6 | 1 |  | O=C(O)CCC/C=C(/c1cccnc1)c1cccc(CCNS(=O)(=O)c2ccc(I)cc2)c1 |  | > 98
16 | 794 | 31.6 | 25.1 |  | O=C(O)CCC/C=C(/c1cccnc1)c1cccc(CCNS(=O)(=O)c2ccc(F)cc2)c1 |  | 
